According to patent publication US12168673B2 (Mitopower, Inc., priority 2022, dated 2024):
Like-named read-outs stand apart in the source and are kept apart here.

Tests used:
[1] = Solid state stability (purity by UPLC); type: physicochemical
Protocol: Compounds 100, 101 and 102 were kept in glass vials at three different locations at temperatures of […], 2-8° C. and −20° C. in order to assess solid state stability at room temperature, refrigerated conditions and in a deep freezer. The compounds from these vials were assessed for purity by UPLC at three different timepoints 0 hrs, 24 hrs and 48 hrs. Table 2 depicts the results obtained for solid state stability at 25° C., 2-8° C. and −20° C. respectively. Purity measurements were made at 0 hrs, 24 hours and 48 hours.

Jurkat Cells = assay: Cellular NAD+ levels in Jurkat cells (LCMS/MS); type: cell-based; details: 30 μM, four hours of incubation
Protocol: Compounds 100, 101 and 102 were weighted out to prepare 60 μM stock solutions in RPMI media. 200 ng/mL solution of Rac-tenofovir d6 (Vivan Life-Sciences) was prepared in methanol (MeOH) and placed at −20° C. until use.
Jurkat Cells, sourced from NCCS Pune, were cultured in RPMI media containing FBS & Antibiotics. Cells from different flasks (90% confluent) were pooled into a 15 mL conical tube and centrifuged for 5 mins at 1200 rpm for 5 mins. The supernatant solution was discarded, and the pellet was washed with 5 mL sterile PBS (without Ca^2+ & Mg^2+). The tube was then centrifuged at 1200 rpm for 5 mins and the supernatant was discarded. The cell pellet was resuspended in 7 mL of RPMI media, and a cell count was done using 10 uL of the cell solution. 1.5 million cells from the cell solution were seeded into 1.5 mL microcentrifuge tubes. […] The tubes were placed in racks and gently swirled to mix the compounds into the media containing the cells. These tubes were then incubated for 4 hours in a 37° C. incubator at 5% CO2. After 4 hours of incubation the cells were spun down at 1000 rpm for 10 mins, the supernatant was discarded carefully, and cells were snap frozen in liquid nitrogen. When the samples were run, the extraction of the cells was on ice, cells were lysed using 20 uL deionized water and then ice cold 80% methanol containing the internal standard—Rac-Tenofovir D was added. The tubes were then vortexed at 2500 rpm for 8 minutes and then centrifuged at […] for 10 minutes. 150 uL of the supernatant was carefully transferred to HPLC vials and was analyzed for NAD^+ on the Abscised 4000 Q Trap LCMS/MS system. A C18, 3.5 μm, 2.1×100 mm, Bridge Column was used in the LC. The mobile phase consisted of 10 mM ammonium acetate with 0.1% acetic acid and 0.1% hexylamine as Solvent-A and 10 mM Ammonium acetate with 0.1% acetic acid and 0.1% hexylamine in 95/5 MeOH/H2O as Solvent-B. The gradient used was 0 mins-0.0% B, 0.5 mins-100% B, 1.5 mins-100% B, 3.0 mins-100% B, 3.1 mins-0.0% B, 7.0-STOP. The column flow rate was 0.5 mL/min. The sample injection volume was […].

Kinetic solubility = type: physicochemical; details: for solubility at 1.5 h: aqueous buffer, kinetic from dmso stock, 0.1 M phosphate buffered saline pH 7.4, target 100 μM; for % Solubility: at 100 μM, 0.1 M phosphate buffered saline pH 7.4
Protocol: The target compound concentration was 100 μM (kinetic), the assay buffer was 0.1 M phosphate buffered saline pH 7.4, the mixing period was 1.5 h (kinetic). The sample was prepared by centrifugation or filtration and the detection method used was HPLC with UV-vis spectrometry.

Human Plasma Protein = assay: in vitro; details: human, plasma
Protocol: The test compounds were weighed and prepared as 10 mM stocks in 100% DMSO. 10 μM is the final test concentration for all compounds.
The samples were prepared by spiking test compound(s) in plasma at 10 μM final concentration. 200 μL of plasma containing the test compound was added into the donor well (RED Chamber) of the insert. Simultaneously 350 μL of dialysis buffer (1×PBS) was added into the receiver well (white chamber). Two measurements were made for each test compound. The plate was covered with a sealer and incubated at 37° C. degrees on an orbital shaker at 500 rpm for 5 hours.
After incubation, 25 μl of plasma (RED chamber) and 25 μl of buffer (white chamber) samples were separately collected into separate centrifugation tubes. Plasma and buffer samples were precipitated with 200 μL of 100% acetonitrile containing internal standards. 25 μl of T0 (T Zero) plasma samples (samples before 5 hours incubation) were collected (To samples were processed immediately after the preparation of plasma working stock solution. These samples serve as a measure for calculating the percentage recovery of the test compound and precipitated using 100% acetonitrile containing internal standards). The samples were vortexed at 1000 rpm for 5 min and centrifuged at 4000 rpm for 10 min. The supernatant was diluted 2-fold with water and injected into LC-MS/MS.
The % of Plasma bound/unbound fraction was calculated by the following equation: % Unbound or % free=100*(Fc/Tc); % Recovery=100 (Fc+Tc)/[…] where Tc=Total compound concentration as determined by the calculated concentration on the plasma side of the membrane (concentration in plasma chamber), Fc=Free compound concentration as determined by the calculated concentration on the buffer side of the membrane (concentration in buffer chamber) and T0=Total compound concentration as determined before dialysis.

[2] = read-out: Mean Solubility (μg/mL)

Compound | Solid State Stability (% Purity) ([1]; 2-8° C., 0 hr) | Solid State Stability (% Purity) ([1]; 2-8° C., 24 hr) | Solid State Stability (% Purity) ([1]; 2-8° C., 48 hr) | Solid State Stability (% Purity) ([1]; 25° C., 0 hr) | Solid State Stability (% Purity) ([1]; 25° C., 24 hr) | Solid State Stability (% Purity) ([1]; 25° C., 48 hr) | Solid State Stability (% Purity) ([1]; −20° C., 0 hr) | Solid State Stability (% Purity) ([1]; −20° C., 24 hr) | Solid State Stability (% Purity) ([1]; −20° C., 48 hr) | NAD+ level increase compared to untreated cells (Jurkat Cells) | solubility at 1.5 h (Kinetic solubility; read-out: Mean Solubility) | solubility at 1.5 h (Kinetic solubility; [2]) | % Solubility (Kinetic solubility) | protein binding (footnote, in words) (Human Plasma Protein) | NAD+ level increase, comparison among the compounds (Jurkat Cells) | Remarks (binding class) (Human Plasma Protein)
O=C(OC1O[C@H](CO)[C@@H](O)[C@H]1O)c1cccnc1 (stereo partly drawn) [Compound 100, (3R, 4S, 5R)-3,4-dihydroxy-5-(hydroxymethyl) tetrahydrofuran-2-yl nicotinate] | 96.29% | 96.32% | 96.28% | 96.02% | 96.23% | 96.22% | 96.33% | 96.32% | 96.49% | showed statistical significance in terms of NAD^+ level increases | 96.5 µM | 24.6 µg/mL | 96% | Compounds 100 and 102 were not detected indicating no protein binding as shown in Table 12, above. |  | 
O=C(OC[C@H]1OC(O)[C@H](O)[C@@H]1O)c1ccccn1 (stereo partly shown) [Compound 102, (3,4,5-trihydroxytetrahydrofuran-2-yl) methyl picolinate] | 95.28% | 95.18% | 95.45% | 95.60% | 95.55% | 95.23% | 95.26% | 95.27% | 95.28% | showed statistical significance in terms of NAD^+ level increases | 105 µM | 26.9 µg/mL | 100% | Compounds 100 and 102 were not detected indicating no protein binding as shown in Table 12, above. |  | 
COC(=O)[C@@H](C)NP(=O)(OC[C@H]1OC(OC(=O)c2cccnc2)[C@H](O)[C@@H]1O)Oc1ccccc1 (stereo partly drawn) [Compound 101, (3R, 4S, 5R)-3,4-dihydroxy-5-(((((1-methoxy-1-oxopropan-2-yl)amino)(phenoxy)phosphoryl)oxy)methyl)tetrahydrofuran-2-yl nicotinate] | 93.20% | 90.57% | 90.59% | 93.20% | 89.68% | 90.66% | 93.20% | 90.72% | 90.63% | showed statistical significance in terms of NAD^+ level increases | 117 µM | 58 µg/mL | 100% |  | highest increase | Medium binding
